Assays:
[1] = test system: encephalitogenic CD4+ MBP-specific rat TCL (L1402); test: TNF/LT production by rat MBP-specific T-cell line, cytotoxicity bioassay; format: cell-based; settings: stereospecificity, (-)- versus (+)-enantiomer
Source text: To assess the ability of rolipram alone or in various combinations as described to modify autoimmune processes, we investigated its influence on TNF production in vitro by MBP-specific T-cell lines from MS patients and Lewis rats. MBP is a major candidate antigen in MS, and T-cell-mediated immunity is of crucial importance in its pathogenesis. Similar to EAE, MBP-specific T-cells in humans are often cytotoxic, of Th1 type secreting interferon (IFN)-gamma and TNF/LT, and recognize epitopes that are also encephalitogenic in EAE.
Similar results were found using an encephalitogenic CD4+ MBP-specific rat TCL (L1402). […] Previous investigations had shown that inhibition of cAMP PDE by rolipram is stereospecific.
TNF and LT may both be produced by autoactive T-cells. CD4+ cells have been reported to be the major source of TFN in autoimmune insulitis of NOD mice. The cytokine bioassay for TNF/LT detection employed here is sensitive to TNF and LT, but is 200 times more sensitive to the former.

[2] = test system: adoptive cell transfer (tEAE); test: EAE after adoptive cell transfer (tEAE) in Lewis rats; format: in vivo; settings: treatment after onset of symptoms; n = 5
Method: The results of our in vivo findings prompted us to perform treatment experiments in EAE after active immunization (aEAE) and adoptive cell transfer (tEAE) in Lewis rats. […] In clinically manifest EAE, treatment was started within 6 hours of the onset of symptoms. […] In tEAE similar effects were observed. […] Treatment after onset of symptoms also lead to a marked reduction in maximum severity (treated group: MMS 0.7 ± 0.10, n = 5; vehicle treated matched controls 2.45 ± 0.56, n = 5, p 0.01).

active EAE = test: Treatment of active (chronic) EAE in a marmoset; format: in vivo, Callithrix jacchus (common marmoset); settings: one marmoset with chronic EAE; escalating doses of Rolipram in DMSO
[3] = test system: Experimental Allergic Encephalomyelitis (EAE); test: Prevention of Experimental Allergic Encephalomyelitis (EAE) in immunized marmosets; format: in vivo, Callithrix jacchus (common marmoset); settings: treatment stopped on day 60 following immunization; two marmosets; day counted from withdrawal

SMILES	times more effective than the (+)-enantiomer (inhibition of TNF/LT production) [1] [times]	maximum severity, MMS [2]	MRI improvement following initiating Rolipram treatment (active EAE) [days]	marked improvement (physical symptoms) after initiating treatment (active EAE) [days]	clinical signs of EAE following withdrawal of Rolipram [3] [days]
COc1ccc(C2CNC(=O)C2)cc1OC1CCCC1 (single isomer, unassigned; (-)) [(-)-rolipram]	55	–	–	–	–
COc1ccc(C2CNC(=O)C2)cc1OC1CCCC1 (centres unmarked) [Rolipram, 4-[(3-cyclopentyloxy)-4-methoxyphenyl)-2-pyrrolidinone]	–	0.7 ± 0.10	14	10	17
